Patent US9345905B2, “Heterocyclic amides compounds which are HDAC6 inhibitors and used as anti-tumoral agents” (Nanjing Allgen Pharma Co. Ltd., priority 2011, dated 2016)
Where two headings read alike, the source gives them in different places.

Target: T1, human HDAC6 (Homo sapiens, UniProt Q9UBN7)
T1 construct: Reaction Biology Corporation
T1 sequence (Q9UBN7 1-1215): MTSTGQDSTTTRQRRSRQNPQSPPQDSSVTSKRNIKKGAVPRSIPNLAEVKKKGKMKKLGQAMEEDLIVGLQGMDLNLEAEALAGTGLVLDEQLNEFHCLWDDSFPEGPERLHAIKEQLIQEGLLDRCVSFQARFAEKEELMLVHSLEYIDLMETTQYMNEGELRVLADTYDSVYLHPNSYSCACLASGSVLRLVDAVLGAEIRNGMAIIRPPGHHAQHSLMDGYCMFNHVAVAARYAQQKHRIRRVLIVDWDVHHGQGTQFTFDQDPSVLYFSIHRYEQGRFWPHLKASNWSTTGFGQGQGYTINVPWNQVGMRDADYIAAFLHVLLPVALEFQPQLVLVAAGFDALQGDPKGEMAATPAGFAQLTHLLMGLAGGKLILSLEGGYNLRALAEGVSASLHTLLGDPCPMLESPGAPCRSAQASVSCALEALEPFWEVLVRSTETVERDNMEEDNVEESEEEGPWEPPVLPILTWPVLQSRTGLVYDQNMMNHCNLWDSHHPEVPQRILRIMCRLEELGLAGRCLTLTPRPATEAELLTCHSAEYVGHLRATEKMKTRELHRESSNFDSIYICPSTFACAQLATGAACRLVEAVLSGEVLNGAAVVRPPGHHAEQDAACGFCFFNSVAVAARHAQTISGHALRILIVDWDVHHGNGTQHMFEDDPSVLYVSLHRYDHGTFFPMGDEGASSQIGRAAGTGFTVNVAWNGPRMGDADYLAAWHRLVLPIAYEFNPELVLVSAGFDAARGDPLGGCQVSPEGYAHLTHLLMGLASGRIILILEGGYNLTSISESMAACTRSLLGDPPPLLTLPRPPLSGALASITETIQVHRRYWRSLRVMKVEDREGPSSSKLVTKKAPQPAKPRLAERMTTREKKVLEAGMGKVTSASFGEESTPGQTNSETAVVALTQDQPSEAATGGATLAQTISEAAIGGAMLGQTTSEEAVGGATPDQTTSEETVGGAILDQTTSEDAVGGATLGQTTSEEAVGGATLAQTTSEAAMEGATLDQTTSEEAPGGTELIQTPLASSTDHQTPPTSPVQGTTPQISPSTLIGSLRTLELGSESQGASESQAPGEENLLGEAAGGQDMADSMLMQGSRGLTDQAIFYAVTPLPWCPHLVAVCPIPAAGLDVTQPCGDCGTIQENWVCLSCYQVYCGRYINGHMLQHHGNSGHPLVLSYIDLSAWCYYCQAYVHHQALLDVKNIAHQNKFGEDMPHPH
Test: HDAC6 inhibition, fluorogenic peptide substrate (Reaction Biology Corporation)
Format: biochemical
Protocol: The compounds of the present invention were tested for inhibition of human HDAC6 at Reaction Biology Corporation by using 50 μM Fluorogenic peptide from p53 residues 379-382 (RHKKAc) as the substrate.

[1] = 50 μM fluorogenic peptide from p53 residues 379-382 (RHKKAc) as substrate, read-out: IC50, HDAC6 inhibition

Row | SMILES | IC50 [1] [nM] | IC50 [nM]
1 | CN1CCn2c(c(Sc3ccc(C(=O)NO)cc3)c3ccccc32)C1=O [Example 5, N-hydroxy-4-((2-methyl-1-oxo-1,2,3,4-tetrahydropyrazino[1,2-a]indol-10-yl)thio)benzamide] | 1.76 | 
2 | CN1CCc2c(Cc3ccc(C(=O)NO)cc3)c3ccccc3n2C1 [Example 3, N-hydroxy-4-((2-methyl-1,2,3,4-tetrahydropyrimido[1,6-a]indol-5-yl)methyl)benzamide] | 10.7 | 
3 | Cc1ccc2c(c1)c(Sc1ccc(C(=O)NO)cc1)c1n2CN(C)CC1 [Example 2, 4-((2,7-Dimethyl-1,2,3,4-tetrahydropyrimido[1,6-a]indol-5-yl)thio)-N-hydroxybenzamide] | 35.5 | 
4 | CN1CCc2c(Sc3ccc(C(=O)NO)cc3)c3ccccc3n2C1 [Example 1, N-Hydroxy-4-((2-methyl-1,2,3,4-tetrahydropyrimido[1,6-a]indol-5-yl)thio)benzamide] | 2.48 | 
5 | CN1CCc2c(C(=O)c3ccc(C(=O)NO)cc3)c3ccccc3n2C1 [Example 4, N-hydroxy-4-(2-methyl-1,2,3,4-tetrahydropyrimido[1,6-a]indole-5-carbonyl)benzamide] |  | 1490
